EC50 data for 19 compounds are collected here from patent publication US10131670B2, “Bicyclic heteroaryl derivatives as CFTR potentiators” (CYSTIC FIBROSIS FOUNDATION THERAPEUTICS, INC., priority 2016, dated 2018).

As usually defined, the EC50 is the concentration needed to bring the measured effect to its halfway point.

Assay [1] has as its target F508del V470 CFTR (Homo sapiens, UniProt P13569, DEL508-508). As to the kind of experiment: FRT Ion Flux Assay of F508del CFTR Potentiation. The settings on record: FRT cells expressing F508del V470 CFTR and halide-sensitive YFP, forskolin 20 uM, 30 min. The class given is cell-based. How it is done:
FRT Ion Flux Assay of F508del CFTR Potentiation
Fischer rat thyroid (FRT) cell lines stably expressing recombinant F508del V470 CFTR and halide-sensitive yellow fluorescent protein (Pedemonte et al., J. Clin. Invest. 115(9) 2564-71 (2005)) were seeded at 25,000 cells/well in 50 uL/well of culture medium into black-walled, clear bottom tissue-culture-treated 384-well plates (Corning, cat. no. 3712). After one day, the cells were pre-incubated at 27° C./5% CO2 for 16-24 hours. The cells were then washed with dPBS and treated with forskolin (20 uM) and test compound for 30 min by addition of 20 uL of compound dilution buffer (dPBS containing forskolin and test compound). Plates were loaded into FLIPR384 fluorescence imaging plate reader (Molecular Devices). After an initial fluorescence reading, iodide buffer (25 uL) (composition (in mM): 137 NaI, 1.5 K2PO4, 8.1 NaH2PO4, 2.7 KCl, 0.5 MgCl2, 1 CaCl2) was added and a second fluorescence reading was made after approximately 21 seconds. Data treatment involved division of the second fluorescence reading by the initial fluorescence reading, then scaling of the resulting normalized endpoint fluorescence with respect to the responses for DMSO (0%) and a positive control potentiator (100%).

Assay [2] concerns the target CFTR (Homo sapiens, UniProt P13569). As to the kind of experiment: Ussing Chamber Electrophysiology Assay of CFTR Potentiation in CF Bronchial Epithelial Cells. It is filed as cell-based. The settings on record: primary CF hBE cells, short-circuit current, scaled to DMSO (0%) and positive control potentiator (100%). The source says:
Ussing Chamber Electrophysiology Assay of CFTR Potentiation in CF Bronchial Epithelial Cells
Primary cystic fibrosis human bronchial epithelial (CF hBE) cells were expanded and cultured according to published methods (Neuberger et al., Ch. 4 of Cystic Fibrosis, Methods in Molecular Biology vol. 741, pp. 39-54 (2011)). Well-differentiated cells (>30 days at air/liquid interface) on Snapwell filters (Corning Costar, cat. no. 3801) were mounted in Ussing chambers (Physiologic Instruments, Inc., San Diego, Calif.). F508del/F508del cultures were assayed at 27° C. and G551D/F508del cells were assayed at 35° C. HEPES buffered physiological saline (composition (in mM): 137 NaCl, 4 KCl, 1 MgCl2, 1.8 CaCl2, 10 HEPES Na) was used in both apical and basolateral chambers. Chambers were bubbled with air to promote mixing and the voltage was clamped to zero. Amiloride (30 uM), forskolin (10 uM), test compound (4 increasing concentrations), and CFTRinh-172 (20 uM) were added sequentially with 20-25 minutes between additions. Short-circuit currents were acquired and analyzed using LabScribe2. Test compound responses were scaled relative to responses for DMSO (0%) and the maximal response of a positive control potentiator (100%).

F508del V470 CFTR, sequence (P13569 with tags, fused parts or gaps DEL508-508): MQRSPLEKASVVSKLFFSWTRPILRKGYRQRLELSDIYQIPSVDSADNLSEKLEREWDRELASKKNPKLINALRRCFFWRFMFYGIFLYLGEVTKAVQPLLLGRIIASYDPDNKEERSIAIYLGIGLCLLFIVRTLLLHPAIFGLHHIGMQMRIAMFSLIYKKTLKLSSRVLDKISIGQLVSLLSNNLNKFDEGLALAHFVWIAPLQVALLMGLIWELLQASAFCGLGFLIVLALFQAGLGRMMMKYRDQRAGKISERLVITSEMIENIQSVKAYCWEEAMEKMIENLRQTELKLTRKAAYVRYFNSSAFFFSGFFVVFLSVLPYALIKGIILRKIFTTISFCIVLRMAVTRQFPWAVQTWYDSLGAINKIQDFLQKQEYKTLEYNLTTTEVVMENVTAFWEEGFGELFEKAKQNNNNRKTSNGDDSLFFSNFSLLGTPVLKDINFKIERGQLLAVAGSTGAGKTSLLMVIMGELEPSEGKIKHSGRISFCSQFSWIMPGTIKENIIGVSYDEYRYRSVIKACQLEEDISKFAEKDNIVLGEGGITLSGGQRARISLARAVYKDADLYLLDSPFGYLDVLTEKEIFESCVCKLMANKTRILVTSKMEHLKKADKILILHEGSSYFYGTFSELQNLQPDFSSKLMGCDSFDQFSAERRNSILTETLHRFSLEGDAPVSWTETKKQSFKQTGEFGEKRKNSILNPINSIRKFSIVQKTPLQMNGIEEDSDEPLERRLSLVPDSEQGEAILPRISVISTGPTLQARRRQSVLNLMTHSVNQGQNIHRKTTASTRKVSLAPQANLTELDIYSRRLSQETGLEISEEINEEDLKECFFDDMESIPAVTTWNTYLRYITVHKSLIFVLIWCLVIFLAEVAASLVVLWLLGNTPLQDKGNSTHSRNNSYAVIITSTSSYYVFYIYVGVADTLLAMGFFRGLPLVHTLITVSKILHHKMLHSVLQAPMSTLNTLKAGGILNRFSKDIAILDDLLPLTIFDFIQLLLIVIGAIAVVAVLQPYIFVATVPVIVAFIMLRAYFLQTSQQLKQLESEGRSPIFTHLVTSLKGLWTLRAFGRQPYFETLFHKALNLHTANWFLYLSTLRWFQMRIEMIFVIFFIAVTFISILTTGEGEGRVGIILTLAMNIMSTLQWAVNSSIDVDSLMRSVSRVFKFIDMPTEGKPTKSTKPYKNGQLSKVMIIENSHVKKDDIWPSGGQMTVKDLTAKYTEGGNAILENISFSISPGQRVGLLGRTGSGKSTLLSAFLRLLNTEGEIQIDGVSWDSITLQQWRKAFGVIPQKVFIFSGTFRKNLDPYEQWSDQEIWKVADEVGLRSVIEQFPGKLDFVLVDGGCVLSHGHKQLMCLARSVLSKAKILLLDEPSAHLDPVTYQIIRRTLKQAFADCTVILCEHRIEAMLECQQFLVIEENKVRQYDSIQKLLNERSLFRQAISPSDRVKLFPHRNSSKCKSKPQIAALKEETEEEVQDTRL

With `CC(c1cn(-c2ccccc2F)nn1)c1cc(-c2cnc(C(F)(F)F)nc2)c2c(N)ncnn12` (single isomer, unassigned) [Example 53, 7-{1-[1-(2-fluorophenyl)-1H-1,2,3-triazol-4-yl]ethyl}-5-[2-(trifluoromethyl)pyrimidin-5-yl]pyrrolo[2,1-f][1,2,4]triazin-4-amine], the concentration giving a half-maximal response (EC50) in assay [1] was determined as 0.0764 µM; in assay [2], 0.171 µM.
In the case of `CC(c1cn(-c2ccccc2F)nn1)c1cc(-c2cnc(C(F)(F)F)nc2)c2c(N)ncnn12` (single isomer, unassigned) [Example 54, 7-{1-[1-(2-fluorophenyl)-1H-1,2,3-triazol-4-yl]ethyl}-5-[2-(trifluoromethyl)pyrimidin-5-yl]pyrrolo[2,1-f][1,2,4]triazin-4-amine], the EC50 turned out to be 0.0074 µM in assay [1] and 0.00648 µM in assay [2].
As to `CC(c1cn(-c2ccc(F)cc2F)nn1)c1cc(-c2cnc(C(F)(F)F)nc2)c2c(N)ncnn12` (single isomer, unassigned) [Example 55, 7-{1-[1-(2,4-difluorophenyl)-1H-1,2,3-triazol-4-yl]ethyl}-5-[2-(trifluoromethyl)pyrimidin-5-yl]pyrrolo[2,1-f][1,2,4]triazin-4-amine], the figures for the EC50 in assay [1] and in assay [2] were 0.266 µM and 0.225 µM, respectively.
As for `CC(c1cn(-c2ccc(F)cc2F)nn1)c1cc(-c2cnc(C(F)(F)F)nc2)c2c(N)ncnn12` (single isomer, unassigned) [Example 56, 7-{1-[1-(2,4-difluorophenyl)-1H-1,2,3-triazol-4-yl]ethyl}-5-[2-(trifluoromethyl)pyrimidin-5-yl]pyrrolo[2,1-f][1,2,4]triazin-4-amine], the values for the EC50 in assay [1] and in assay [2] were 0.00876 µM and 0.00748 µM, respectively.
For the compound `CCC(c1cn(-c2ccccc2F)nn1)c1cc(-c2cnc(C(F)(F)F)nc2)c2c(N)ncnn12` (single isomer, unassigned) [Example 57, 7-{1-[1-(2-fluorophenyl)-1H-1,2,3-triazol-4-yl]propyl}-5-[2-(trifluoromethyl)pyrimidin-5-yl]pyrrolo[2,1-f][1,2,4]triazin-4-amine], the EC50 came out at 0.00188 µM in assay [1] and 0.002 µM in assay [2].
Consider `CCC(c1cn(-c2ccccc2F)nn1)c1cc(-c2cnc(C(F)(F)F)nc2)c2c(N)ncnn12` (single isomer, unassigned) [Example 58, 7-{1-[1-(2-fluorophenyl)-1H-1,2,3-triazol-4-yl]propyl}-5-[2-(trifluoromethyl)pyrimidin-5-yl]pyrrolo[2,1-f][1,2,4]triazin-4-amine], for which the EC50 in assay [1] came to 0.0912 µM; in assay [2], 0.0367 µM.
Regarding `CCC(c1cn(-c2ccc(F)cc2F)nn1)c1cc(-c2cnc(C(F)(F)F)nc2)c2c(N)ncnn12` (single isomer, unassigned) [Example 59, 7-{1-[1-(2,4-difluorophenyl)-1H-1,2,3-triazol-4-yl]propyl}-5-[2-(trifluoromethyl)pyrimidin-5-yl]pyrrolo[2,1-f][1,2,4]triazin-4-amine], the EC50 came out at 0.249 µM in assay [1] and 0.115 µM in assay [2].
On to `CCC(c1cn(-c2ccc(F)cc2F)nn1)c1cc(-c2cnc(C(F)(F)F)nc2)c2c(N)ncnn12` (single isomer, unassigned) [Example 60, 7-{1-[1-(2,4-difluorophenyl)-1H-1,2,3-triazol-4-yl]propyl}-5-[2-(trifluoromethyl)pyrimidin-5-yl]pyrrolo[2,1-f][1,2,4]triazin-4-amine], for which the EC50 in assay [1] amounted to 0.00336 µM; in assay [2], 0.002 µM.
`CCC(c1cn(-c2cc(F)ccc2F)nn1)c1cc(-c2cnc(C(F)(F)F)nc2)c2c(N)ncnn12` (single isomer, unassigned) [Example 61, 7-{1-[1-(2,5-difluorophenyl)-1H-1,2,3-triazol-4-yl]propyl}-5-[2-(trifluoromethyl)pyrimidin-5-yl]pyrrolo[2,1-f][1,2,4]triazin-4-amine]: the EC50 in assay [1] is 0.253 µM; in assay [2], 0.0737 µM.
In the case of `CCC(c1cn(-c2cc(F)ccc2F)nn1)c1cc(-c2cnc(C(F)(F)F)nc2)c2c(N)ncnn12` (single isomer, unassigned) [Example 62, 7-{1-[1-(2,5-difluorophenyl)-1H-1,2,3-triazol-4-yl]propyl}-5-[2-(trifluoromethyl)pyrimidin-5-yl]pyrrolo[2,1-f][1,2,4]triazin-4-amine], the EC50 in assay [1] was found to be 0.0176 µM; in assay [2] it was 0.00995 µM.
In the case of `CCC(c1cn(-c2ccc(F)c(F)c2)nn1)c1cc(-c2cnc(C(F)(F)F)nc2)c2c(N)ncnn12` (single isomer, unassigned) [Example 63, 7-{1-[1-(3,4-difluorophenyl)-1H-1,2,3-triazol-4-yl]propyl}-5-[2-(trifluoromethyl)pyrimidin-5-yl]pyrrolo[2,1-f][1,2,4]triazin-4-amine], the EC50 in assay [1] was 0.0295 µM; in assay [2], 0.0193 µM.
As to `CCC(c1cn(-c2ccc(F)c(F)c2)nn1)c1cc(-c2cnc(C(F)(F)F)nc2)c2c(N)ncnn12` (single isomer, unassigned) [Example 64, 7-{1-[1-(3,4-difluorophenyl)-1H-1,2,3-triazol-4-yl]propyl}-5-[2-(trifluoromethyl)pyrimidin-5-yl]pyrrolo[2,1-f][1,2,4]triazin-4-amine], the figures for the EC50 in assay [1] and in assay [2] were 0.479 µM and 0.177 µM, respectively.
The matching figures for `CCC(c1cn(-c2ccccc2F)nn1)c1cc(-c2cncnc2OC)c2c(N)ncnn12` (single isomer, unassigned) [Example 65, 7-{1-[1-(2-fluorophenyl)-1H-1,2,3-triazol-4-yl]propyl}-5-(4-methoxypyrimidin-5-yl)pyrrolo[2,1-f][1,2,4]triazin-4-amine]: 0.014 µM and 0.0104 µM.
Consider `CCC(c1cn(-c2ccccc2F)nn1)c1cc(-c2cncnc2OC)c2c(N)ncnn12` (single isomer, unassigned) [Example 66, 7-{1-[1-(2-fluorophenyl)-1H-1,2,3-triazol-4-yl]propyl}-5-(4-methoxypyrimidin-5-yl)pyrrolo[2,1-f][1,2,4]triazin-4-amine], for which the EC50 in assay [1] was found to be 0.524 µM; in assay [2], 0.123 µM.
Consider `CC(O)(c1cn(-c2ccccc2F)nn1)c1cc(-c2cnc(C(F)(F)F)nc2)c2c(N)ncnn12` (single isomer, unassigned) [Example 67, 1-{4-amino-5-[2-(trifluoromethyl)pyrimidin-5-yl]pyrrolo[2,1-f][1,2,4]triazin-7-yl}-1-[1-(2-fluorophenyl)-1H-1,2,3-triazol-4-yl]ethanol], for which the figures for the EC50 in assay [1] and in assay [2] were 0.0505 µM and 0.147 µM, respectively.
As for `CCC(c1cnn(-c2ccccc2F)c1)n1nc(-c2cnc(C(F)(F)F)nc2)c2c(N)ncnc21` (single isomer, unassigned) [Example 87, 1-{1-[1-(2-fluorophenyl)-1H-pyrazol-4-yl]propyl}-3-[2-(trifluoromethyl)pyrimidin-5-yl]-1H-pyrazolo[3,4-d]pyrimidin-4-amine], the EC50 turned out to be 0.00476 µM in assay [1] and 0.00153 µM in assay [2].
On to `CCC(c1cnn(-c2ccccc2F)c1)n1nc(-c2cnc(C(F)(F)F)nc2)c2c(N)ncnc21` (single isomer, unassigned) [Example 88, 1-{1-[1-(2-fluorophenyl)-1H-pyrazol-4-yl]propyl}-3-[2-(trifluoromethyl)pyrimidin-5-yl]-1H-pyrazolo[3,4-d]pyrimidin-4-amine], for which the EC50 in assay [1] was found to be 0.0788 µM; in assay [2] it was 0.031 µM.
Take `CCC(c1cn(-c2ccccc2F)nn1)n1nc(-c2cnc(C(F)(F)F)nc2)c2c(N)ncnc21` (single isomer, unassigned) [Example 89, 1-{1-[1-(2-fluorophenyl)-1H-1,2,3-triazol-4-yl]propyl}-3-[2-(trifluoromethyl)pyrimidin-5-yl]-1H-pyrazolo[3,4-d]pyrimidin-4-amine]: the EC50 worked out at 0.219 µM in assay [1] and 0.189 µM in assay [2].
On the same counts, the results for `CCC(c1cn(-c2ccccc2F)nn1)n1nc(-c2cnc(C(F)(F)F)nc2)c2c(N)ncnc21` (single isomer, unassigned) [Example 90, 1-{1-[1-(2-fluorophenyl)-1H-1,2,3-triazol-4-yl]propyl}-3-[2-(trifluoromethyl)pyrimidin-5-yl]-1H-pyrazolo[3,4-d]pyrimidin-4-amine] are 0.0318 µM and 0.0315 µM.
